Reference: patent US11566007B2, “Ras inhibitors” (Revolution Medicines, Inc., priority 2019, dated 2023)

Columns and labels:
NRAS Q61R = NRAS Q61R (Homo sapiens (Human), UniProt P01111+P62937, Q61R); test: Ras-Raf (BRAF RBD) disruption / FRET / MOA assay, NRAS Q61R; assay type: biochemical; conditions: NRAS Q61R; Ras-Raf disruption/FRET/MOA assay; read-out: IC50* NRAS Q61R FRET data
Summary of the method: (§1)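 TR-FRET disruption of nucleotide-loaded Ras binding to BRAF RBD via compound-driven ternary complex with cyclophilin A. Compound as 10-point 3-fold series from 30 μM final, 3 h at 25° C, then anti-His Eu-W1024 (10 nM) and anti-GST allophycocyanin (50 nM) for 1.5 h. IC50 from decreased FRET ratio versus DMSO.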

K-Ras G13C = K-Ras G13C (Homo sapiens (Human), UniProt P01116+P62937, G13C); test: Ras-Raf (BRAF RBD) disruption / FRET / MOA assay, KRAS G13C; assay type: biochemical; conditions: KRAS G13C; Ras-Raf disruption/FRET/MOA assay; read-out: IC50* KRAS G13C FRET data
Summary of the method: (§2)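 Ras:RAF disruption was scored as a fall in TR-FRET ratio relative to DMSO. Compound ranged in 3-fold steps over 10 points from 30 μM final; incubation ran 3 h at 25° C, detection antibodies a further 1.5 h. Reported as IC50.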

[1] = tested on: NCI-H358 cells (K-Ras G12C); test: Potency assay: pERK in NCI-H358 cells; assay type: cell-based, human; conditions: Homo sapiens, NCI-H358; H358 KRAS G12C; read-out: pERK EC50
Summary of the method: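 Compounds are dosed as ten 3-fold dilutions from a 10 mM DMSO stock, in duplicate, and left on cells for 4 h at 37 °C, 5% CO2. Phospho-ERK1/2 is then quantified by AlphaLISA SureFire Ultra or In-Cell Western, and IC50 is derived from a 4-parameter sigmoid against log concentration.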

KRAS G13D = KRAS G13D (Homo sapiens (Human), UniProt P01116+P62937, G13D); test: Ras-Raf (BRAF RBD) disruption / FRET / MOA assay, KRAS G13D; assay type: biochemical; conditions: read-out: IC50* KRAS G13D FRET data
Summary of the method: as §2

KRAS G12S = KRAS G12S (Homo sapiens (Human), UniProt P01116+P62937, G12S); test: Ras-Raf (BRAF RBD) disruption / FRET / MOA assay, KRAS G12S; assay type: biochemical; conditions: Ras-Raf disruption/FRET/MOA assay; class symbols; read-out: KRAS G12S FRET data IC50
Summary of the method: as §2

KRAS WT = KRAS WT (Homo sapiens (Human), UniProt P01116+P62937); test: Ras-Raf (BRAF RBD) disruption / FRET / MOA assay, KRAS WT; assay type: biochemical; conditions: read-out: IC50* KRAS WT FRET data
Summary of the method: as §2

KRAS Q61H = KRAS Q61H (Homo sapiens (Human), UniProt P01116+P62937, Q61H); test: Ras-Raf (BRAF RBD) disruption / FRET / MOA assay, KRAS Q61H; assay type: biochemical; conditions: Ras-Raf disruption/FRET/MOA assay; class symbols; read-out: KRAS Q61H FRET data IC50
Summary of the method: as §1

KRAS Q61H, sequence (P01116-2 other isoform, or with tags, fused parts or gaps Q61H): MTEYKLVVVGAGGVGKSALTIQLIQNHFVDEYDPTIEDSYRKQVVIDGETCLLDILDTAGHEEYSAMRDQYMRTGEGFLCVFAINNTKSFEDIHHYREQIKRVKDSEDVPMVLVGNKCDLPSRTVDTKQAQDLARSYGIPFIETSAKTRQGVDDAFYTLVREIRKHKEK
KRAS Q61H, sequence (P62937 whole entry): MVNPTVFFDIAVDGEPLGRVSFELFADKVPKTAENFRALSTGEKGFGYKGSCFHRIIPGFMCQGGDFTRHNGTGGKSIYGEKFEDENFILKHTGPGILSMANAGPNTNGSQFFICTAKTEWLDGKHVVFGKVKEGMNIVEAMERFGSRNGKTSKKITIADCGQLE
K-Ras G13C, sequence (P01116-2 other isoform, or with tags, fused parts or gaps G13C): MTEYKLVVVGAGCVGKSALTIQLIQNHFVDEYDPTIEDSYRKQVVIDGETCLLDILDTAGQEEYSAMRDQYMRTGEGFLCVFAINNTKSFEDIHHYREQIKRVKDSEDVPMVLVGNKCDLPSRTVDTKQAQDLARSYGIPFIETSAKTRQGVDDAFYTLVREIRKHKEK
K-Ras G13C, sequence (P62937 whole entry): as the sequence (P62937 whole entry) above
KRAS G12S, sequence (P01116-2 other isoform, or with tags, fused parts or gaps G12S): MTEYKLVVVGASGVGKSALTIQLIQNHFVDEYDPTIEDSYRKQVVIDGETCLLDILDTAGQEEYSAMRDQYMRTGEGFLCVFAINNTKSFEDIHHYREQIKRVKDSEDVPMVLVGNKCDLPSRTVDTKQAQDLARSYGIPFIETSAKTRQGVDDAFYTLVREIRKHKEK
KRAS G12S, sequence (P62937 whole entry): as the sequence (P62937 whole entry) above
KRAS G13D, sequence (P01116-2 other isoform, or with tags, fused parts or gaps G13D): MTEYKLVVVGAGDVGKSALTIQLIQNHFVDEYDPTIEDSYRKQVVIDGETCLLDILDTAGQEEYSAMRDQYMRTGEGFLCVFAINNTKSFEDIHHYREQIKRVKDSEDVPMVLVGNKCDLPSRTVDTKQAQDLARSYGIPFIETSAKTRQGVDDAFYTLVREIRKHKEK
KRAS G13D, sequence (P62937 whole entry): as the sequence (P62937 whole entry) above
NRAS Q61R, sequence (P01111 whole entry Q61R): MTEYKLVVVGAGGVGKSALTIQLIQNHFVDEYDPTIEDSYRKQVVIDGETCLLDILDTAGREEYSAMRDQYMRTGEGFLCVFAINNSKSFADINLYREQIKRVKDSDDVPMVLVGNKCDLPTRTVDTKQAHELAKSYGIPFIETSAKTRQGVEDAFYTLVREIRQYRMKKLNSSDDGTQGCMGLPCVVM
NRAS Q61R, sequence (P62937 whole entry): as the sequence (P62937 whole entry) above
KRAS WT, sequence (P01116-2 other isoform, or with tags, fused parts or gaps): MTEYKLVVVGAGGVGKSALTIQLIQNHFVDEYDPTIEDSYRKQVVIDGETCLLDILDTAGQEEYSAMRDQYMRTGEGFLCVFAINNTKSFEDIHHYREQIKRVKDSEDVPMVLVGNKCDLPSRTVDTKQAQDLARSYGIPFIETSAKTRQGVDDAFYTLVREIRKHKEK
KRAS WT, sequence (P62937 whole entry): as the sequence (P62937 whole entry) above

Compound: C=CS(=O)(=O)N1CC2(CCN([C@H](C(=O)N[C@H]3Cc4cc(O)cc(c4)-c4ccc5c(c4)c(c(-c4cccnc4[C@H](C)OC)n5CC)CC(C)(C)COC(=O)[C@@H]4CCCN(N4)C3=O)C(C)C)C2=O)C1 (atropisomer, axis not shown) [Example A297]
- IC50 (NRAS Q61R): 100 to 1000 nM
- IC50 (K-Ras G13C): < 10 nM
- EC50 [1]: < 5000 nM
- IC50 (KRAS G13D): 100 to 1000 nM
- IC50 (KRAS G12S): 100 to 1000 nM
- IC50 (KRAS WT): 10 to 100 nM
- IC50 (KRAS Q61H): < 10 nM

Compound: CO[C@@H](C)c1ncccc1-c1c2c3cc(ccc3n1CC(F)(F)F)-c1nc(ns1)C[C@H](NC(=O)[C@@H](COC1CN(C(=O)C#CC(C)(C)N(C)C)C1)C(C)C)C(=O)N1CCC[C@H](N1)C(=O)OCC(C)(C)C2 (atropisomer, axis not shown) [Example A590, (2R)-2-(((1-(4-(dimethylamino)-4-methylpent-2-ynoyl)azetidin-3-yl)oxy)methyl)-N-((6^3S,4S,Z)-1^2-(2-((S)-1-methoxyethyl)pyridin-3-yl)-10,10-dimethyl-5,7-dioxo-1^1-(2,2,2-trifluoroethyl)-6^1,6^2,6^3,6^4,6^5,6^6-hexahydro-1^1H-8-oxa-2(5,3)-thiadiazola-1(5,3)-indola-6(1,3)-pyridazinacycloundecaphane-4-yl)-3-methylbutanamide]
- IC50 (NRAS Q61R): > 10000 nM
- IC50 (K-Ras G13C): 1000 to 10000 nM
- EC50 [1]: < 5000 nM
- IC50 (KRAS G13D): > 10000 nM
- IC50 (KRAS G12S): 1000 to 10000 nM
- IC50 (KRAS WT): 1000 to 10000 nM
- IC50 (KRAS Q61H): 1000 to 10000 nM

Compound: CCn1c(-c2cccnc2[C@H](C)OC)c2c3cc(ccc31)-c1csc(n1)C[C@H](NC(=O)[C@H](C(C)C)N(C)C(=O)N1CCN(C(=O)/C=C/CN3CCOCC3)C3(CC3)C1)C(=O)N1CCC[C@H](N1)C(=O)OCC(C)(C)C2 (atropisomer, axis not shown) [Example A665]
- IC50 (NRAS Q61R): 10 to 100 nM
- IC50 (K-Ras G13C): 100 to 1000 nM
- EC50 [1]: < 5000 nM
- IC50 (KRAS G13D): 100 to 1000 nM
- IC50 (KRAS G12S): 10 to 100 nM
- IC50 (KRAS WT): 10 to 100 nM
- IC50 (KRAS Q61H): 10 to 100 nM

Compound: C=CC(=O)N1CC[C@@]2(CCN(C(=O)N(C)[C@H](C(=O)N[C@H]3Cc4nc(cs4)-c4ccc5c(c4)c(c(-c4cccnc4[C@H](C)OC)n5CC)CC(C)(C)COC(=O)[C@@H]4CCCN(N4)C3=O)C(C)C)C2)C1 (atropisomer, axis not shown) [Example A367]
- IC50 (NRAS Q61R): 10 to 100 nM
- IC50 (K-Ras G13C): 100 to 1000 nM
- EC50 [1]: < 5000 nM
- IC50 (KRAS G13D): 100 to 1000 nM
- IC50 (KRAS G12S): 10 to 100 nM
- IC50 (KRAS WT): 10 to 100 nM
- IC50 (KRAS Q61H): 10 to 100 nM

Compound: C=C(F)C(=O)N1CC2(CCN(C(=O)N(C)[C@H](C(=O)N[C@H]3Cc4nc(cs4)-c4ccc5c(c4)c(c(-c4cccnc4[C@H](C)OC)n5CC)CC(C)(C)COC(=O)[C@@H]4CCCN(N4)C3=O)C(C)C)CC2)C1 (atropisomer, axis not shown) [Example A682]
- IC50 (NRAS Q61R): 100 to 1000 nM
- IC50 (K-Ras G13C): 100 to 1000 nM
- EC50 [1]: < 5000 nM
- IC50 (KRAS G13D): 100 to 1000 nM
- IC50 (KRAS G12S): 100 to 1000 nM
- IC50 (KRAS WT): 100 to 1000 nM
- IC50 (KRAS Q61H): 10 to 100 nM

Compound: C=CC(=O)N1C[C@H]2CN(C(=O)N(C)[C@H](C(=O)N[C@H]3Cc4nc(cs4)-c4ccc5c(c4)c(c(-c4cccnc4[C@H](C)OC)n5CC)CC(C)(C)COC(=O)[C@@H]4CCCN(N4)C3=O)C(C)C)[C@H]2C1 (atropisomer, axis not shown) [Example A686]
- IC50 (NRAS Q61R): 100 to 1000 nM
- IC50 (K-Ras G13C): 100 to 1000 nM
- EC50 [1]: < 5000 nM
- IC50 (KRAS G13D): 100 to 1000 nM
- IC50 (KRAS G12S): 100 to 1000 nM
- IC50 (KRAS WT): 100 to 1000 nM
- IC50 (KRAS Q61H): 10 to 100 nM

Compound: CCn1c(-c2cccnc2[C@H](C)OC)c2c3cc(ccc31)-c1csc(n1)C[C@H](NC(=O)[C@H](F)COC1CN(C(=O)C#CC(C)(C)N(C)C)C1)C(=O)N1CCC[C@H](N1)C(=O)OCC(C)(C)C2 (atropisomer, axis not shown) [Example A627]
- IC50 (NRAS Q61R): > 10000 nM
- IC50 (K-Ras G13C): > 10000 nM
- EC50 [1]: < 5000 nM
- IC50 (KRAS G13D): > 10000 nM
- IC50 (KRAS G12S): > 10000 nM
- IC50 (KRAS WT): > 10000 nM
- IC50 (KRAS Q61H): 1000 to 10000 nM

Compound: CCn1c(-c2cccnc2[C@H](C)OC)c2c3cc(ccc31)N1CCO[C@@H](C[C@H](NC(=O)[C@H](C(C)C)N(C)C(=O)[C@@]3(F)CCC(C(=O)C#CC(C)(C)N4CCC4)C3)C(=O)N3CCC[C@H](N3)C(=O)OCC(C)(C)C2)C1 (some centres unmarked) [Example A726]
- IC50 (NRAS Q61R): > 10000 nM
- IC50 (K-Ras G13C): 100 to 1000 nM
- EC50 [1]: < 5000 nM
- IC50 (KRAS G13D): 1000 to 10000 nM
- IC50 (KRAS G12S): 1000 to 10000 nM
- IC50 (KRAS WT): 1000 to 10000 nM
- IC50 (KRAS Q61H): 1000 to 10000 nM

Compound: C=CC(=O)N1C[C@@H](C)N(C(=O)N(C)[C@H](C(=O)N[C@H]2Cc3nc(cs3)-c3ccc4c(c3)c(c(-c3cccnc3[C@H](C)OC)n4CC)CC(C)(C)COC(=O)[C@@H]3CCCN(N3)C2=O)C(C)C)[C@H](C)C1 (atropisomer, axis not shown) [Example A388]
- IC50 (NRAS Q61R): < 10 nM
- IC50 (K-Ras G13C): 10 to 100 nM
- EC50 [1]: < 5000 nM
- IC50 (KRAS G13D): 10 to 100 nM
- IC50 (KRAS G12S): 10 to 100 nM
- IC50 (KRAS WT): < 10 nM
- IC50 (KRAS Q61H): < 10 nM

Compound: CCn1c(-c2cccnc2[C@H](C)OC)c2c3cc(ccc31)-c1csc(n1)C[C@H](NC(=O)[C@@H](COC1CN(C(=O)C#CC(C)(C)N(C)C)C1)OC)C(=O)N1CCC[C@H](N1)C(=O)OCC(C)(C)C2 (atropisomer, axis not shown) [Example A660]
- IC50 (NRAS Q61R): 1000 to 10000 nM
- IC50 (K-Ras G13C): 100 to 1000 nM
- EC50 [1]: < 5000 nM
- IC50 (KRAS G13D): 1000 to 10000 nM
- IC50 (KRAS G12S): 1000 to 10000 nM
- IC50 (KRAS WT): 100 to 1000 nM
- IC50 (KRAS Q61H): 100 to 1000 nM

Compound: C=CC(=O)N1CC[C@H](C(=O)N(C)[C@H](C(=O)N[C@H]2Cc3cc(CF)cc(c3)-c3ccc4c(c3)c(c(-c3cccnc3[C@H](C)OC)n4CC)CC(C)(C)COC(=O)[C@@H]3CCCN(N3)C2=O)C(C)C)C1 (atropisomer, axis not shown) [Example A503]
- IC50 (NRAS Q61R): 1000 to 10000 nM
- IC50 (K-Ras G13C): 100 to 1000 nM
- EC50 [1]: < 5000 nM
- IC50 (KRAS G13D): 1000 to 10000 nM
- IC50 (KRAS G12S): 1000 to 10000 nM
- IC50 (KRAS WT): 1000 to 10000 nM
- IC50 (KRAS Q61H): 100 to 1000 nM

Compound: C=CC(=O)N1CC[C@@]2(CCN2C(=O)N(C)[C@H](C(=O)N[C@H]2Cc3nc(cs3)-c3ccc4c(c3)c(c(-c3cccnc3[C@H](C)OC)n4CC)CC(C)(C)COC(=O)[C@@H]3CCCN(N3)C2=O)C(C)C)C1 (atropisomer, axis not shown) [Example A661]
- IC50 (NRAS Q61R): 100 to 1000 nM
- IC50 (K-Ras G13C): 100 to 1000 nM
- EC50 [1]: < 5000 nM
- IC50 (KRAS G13D): 100 to 1000 nM
- IC50 (KRAS G12S): 100 to 1000 nM
- IC50 (KRAS WT): 100 to 1000 nM
- IC50 (KRAS Q61H): 10 to 100 nM

Compound: C=CC(=O)Nc1ccc(C(=O)N(C)[C@H](C(=O)N[C@H]2Cc3cc(O)cc(c3)-c3ccc4c(c3)c(c(-c3cccnc3[C@H](C)OC)n4CC)CC(C)(C)COC(=O)[C@@H]3CCCN(N3)C2=O)C(C)C)nc1 (atropisomer, axis not shown) [Example A252]
- IC50 (NRAS Q61R): 1000 to 10000 nM
- IC50 (K-Ras G13C): < 10 nM
- EC50 [1]: < 5000 nM
- IC50 (KRAS G13D): 100 to 1000 nM
- IC50 (KRAS G12S): 100 to 1000 nM
- IC50 (KRAS WT): 100 to 1000 nM
- IC50 (KRAS Q61H): 100 to 1000 nM

Compound: C=CC(=O)N1CCO[C@H]2CCN(C(=O)N(C)[C@H](C(=O)N[C@H]3Cc4nc(cs4)-c4ccc5c(c4)c(c(-c4cccnc4[C@H](C)OC)n5CC)CC(C)(C)COC(=O)[C@@H]4CCCN(N4)C3=O)C(C)C)C[C@H]21 (atropisomer, axis not shown) [Example A580]
- IC50 (NRAS Q61R): 100 to 1000 nM
- IC50 (K-Ras G13C): 100 to 1000 nM
- EC50 [1]: < 5000 nM
- IC50 (KRAS G13D): 100 to 1000 nM
- IC50 (KRAS G12S): 100 to 1000 nM
- IC50 (KRAS WT): 100 to 1000 nM
- IC50 (KRAS Q61H): 10 to 100 nM
